What all share (type): functional, organism-based
The subject of assay [1] is Tribolium castaneum. Briefly: Antifeedant activity against larvae of Tribolium castaneum (red flour beetle) after 3 days.
Assay [2] deals with Tribolium castaneum. As to the kind of experiment: Antifeedant activity against adult of Tribolium castaneum (red flour beetle) after 3 days.
The test system of a further assay is Sitophilus zeamais. Briefly: Antifeedant activity against adult of Sitophilus zeamais after 3 days.

The structures appear in SMILES notation.

For the molecule `C/C=C(\C)C(=O)O[C@H]1C[C@@H](OC(C)=O)[C@@]2(C(=O)OC)CO[C@H]3[C@@H](O)[C@@](C)([C@]45O[C@@]4(C)[C@@H]4C[C@H]5O[C@@H]5OC=C[C@@]54O)[C@H]4[C@]1(CO[C@]4(O)C(=O)OC)[C@@H]32` [AZADIRACHTIN A], the results for the EC50 in the assay on Tribolium castaneum [1], in the assay on Tribolium castaneum [2] and in the assay on Sitophilus zeamais were 47.9 ppm, 57.6 ppm and 91.7 ppm, respectively.

Take `CC(=O)O[C@@H]1C[C@H](O)[C@@]23CO[C@@H](O)[C@]1(C)[C@@H]2C[C@@H](O)[C@]1(C)[C@@H]3C(=O)[C@H](OC(C)=O)[C@@]2(C)[C@H](c3ccoc3)C[C@H]3O[C@]321` [TOOSENDANIN]: the EC50 came out at 48 ppm in the assay with Tribolium castaneum [1], 66 ppm in the assay with Tribolium castaneum [2] and 100 ppm with Sitophilus zeamais.

Source of the values: ChEMBL document CHEMBL3046561, “Feeding deterrents from Dictamnus dasycarpus Turcz against two stored-product insects” (J Agric Food Chem, 2002).
